Tests used:
primed spleen cells = conditions: cited from earlier work
rat kidney fibroblasts = conditions: cited from earlier work; for level necessary to protect against UV-induced loss of catalase (CAT) / level required to protect against loss of SOD activity / level that prevented the UVA-induced increase in TBARS: UVA light for four hours
hairless mouse = conditions: repeated topical treatment; cited from earlier work
skin of volunteers = conditions: 10% solution applied to the skin, cited from earlier work
SKH hairless mice = conditions: fed as sole carotenoid source; cited from earlier work
sunburn cells = conditions: in vivo; cited from earlier work
[1] = test system: basal-cell and squamous-cell carcinomas; conditions: 4.5 years, cited from earlier work
human sunburn response = conditions: oral supplementation, normal individuals; cited from earlier work
human blood = conditions: response to T-dependent stimuli; cited from earlier work
[2] = test system: interleukin-1 alpha and tumor necrosis factor alpha; conditions: mouse, in vivo; cited from earlier work
sunburn by UVR exposure = test: Example 1: oral astaxanthin soft gel capsules in a subject with extreme propensity for sunburns; assay type: in vivo, human
Experimental: Haematococcus algae meal containing 1.5% astaxanthin was thoroughly mixed with safflower oil such that the resulting suspension contained 2.0 mg of pure astaxanthin per gram of safflower oil suspension. 500 mg soft gel capsules were produced from the safflower oil suspension such that each soft gel capsule contained 1.0 mg of pure astaxanthin.
One individual was an adult with extreme propensity for sunburns. The subject had come to Hawaii for vacation and had already sunburned on a 10 minute walk with SPF 50 sunblock cream, long pants and sleeves. They then began taking 2 milligrams of astaxanthin of the above formulation per day. On the eleventh day, they took another walk in the afternoon, on a cloudy day, with long pants, a tee shirt, but without a hat or sunglasses. While 1 mile away from their condo, the clouds dissipated and they were exposed to the full sun while walking back.

SKH1 hairless mice = conditions: cited from earlier work
vitamin E-deficient rats = conditions: rat, in vivo; cited from earlier work
[3] = test system: sunblister sores and sun sensitivity; test: Example 2: oral astaxanthin in a construction worker with sunblister sores; assay type: in vivo, human; conditions: 4 milligrams per day oral
Excerpt: An adult subject is a construction worker in Hawaii and is routinely exposed to the UVR of the sun while working outside. They were often affected by sunblister sores breaking out on their arm after a long day of sun exposure. The individual began taking 4 milligrams of astaxanthin per day derived from Haematococcus algae (as described in the above Example 1). Two milligrams of astaxanthin were consumed with lunch and 2 milligrams with dinner.
The individual stopped taking the astaxanthin formulation for two weeks and the blisters and sun sensitivity returned.

laboratory animals = conditions: applied up to 8 hours following UVB exposure; cited from earlier work
UV-induced erythema = conditions: cited from earlier work

## CC1=C(/C=C/C(C)=C/C=C/C(C)=C/C=C/C=C(C)/C=C/C=C(C)/C=C/C2=C(C)C(=O)CCC2(C)C)C(C)(C)CCC1=O [canthaxanthin]
Primed spleen cells
  number of antibody-secreting cells from primed spleen cells: not

## CC1=C[C@H](O)CC(C)(C)[C@H]1/C=C/C(C)=C/C=C/C(C)=C/C=C/C=C(C)/C=C/C=C(C)/C=C/C1=C(C)C[C@@H](O)CC1(C)C [lutein]
Primed spleen cells
  number of antibody-secreting cells from primed spleen cells: not
Rat kidney fibroblasts
  level necessary to protect against UV-induced loss of catalase (CAT): 100 nM
  level required to protect against loss of SOD activity: 1000 nM
  level that prevented the UVA-induced increase in TBARS: 1000 nM

## O=C(OOC(=O)c1ccccc1)c1ccccc1 [benzoyl peroxide]
Hairless mouse
  cutaneous effects of repeated administration: produces skin changes in the hairless mouse that qualitatively resemble those produced by ultraviolet B

## O=C1O[C@H]([C@@H](O)CO)C(O)=C1O [vitamin C]
Skin of volunteers; average
  increase in amount of ultraviolet light needed to burn: 22%
Skin of volunteers
  severity of burns: half of the volunteers experienced much less severe bums

## CC(C)=CCC/C(C)=C/C=C/C(C)=C/C=C/C(C)=C/C=C/C=C(C)/C=C/C=C(C)/C=C/C=C(\C)CCC=C(C)C [lycopene]
Primed spleen cells
  number of antibody-secreting cells from primed spleen cells: not
SKH hairless mice
  probability of epidermal tumors: tended to have higher probability of epidermal tumors

## tocopherol
Sunburn cells
  number of sunburn cells: decreased

## CC1=C(/C=C/C(C)=C/C=C/C(C)=C/C=C/C=C(C)/C=C/C=C(C)/C=C/C2=C(C)CCCC2(C)C)C(C)(C)CCC1 [beta-carotene]
[1]; 30 mg per day
  incidence of basal-cell or squamous-cell carcinoma versus placebo: no significant difference
[1]
  incidence of basal-cell carcinoma in terms of number of tumors: no effect
Primed spleen cells
  number of antibody-secreting cells from primed spleen cells: not
SKH hairless mice
  probability of epidermal tumors: tended to have higher probability of epidermal tumors
Human sunburn response
  severity of cutaneous photodamage: unlikely to modify
Rat kidney fibroblasts
  level necessary to protect against UV-induced loss of catalase (CAT): 1000 nM
  level required to protect against loss of SOD activity: 500 nM
  level that prevented the UVA-induced increase in TBARS: 100 nM

## CC1=C(/C=C/C(C)=C/C=C/C(C)=C/C=C/C=C(C)/C=C/C=C(C)/C=C/C2=C(C)C(=O)[C@@H](O)CC2(C)C)C(C)(C)C[C@H](O)C1=O [astaxanthin]
Human blood
  production of IgM, IgA and IgG antibodies: enhances
Primed spleen cells
  number of antibody-secreting cells from primed spleen cells: increased
Primed spleen cells; even when suboptimal amounts of antigen were present
  T-helper cell antibody production: enhanced
[2]
  release of interleukin-1 alpha and tumor necrosis factor alpha: enhances the release of interleukin-1 alpha and tumor necrosis factor alpha in mice to a greater degree than canthaxanthin and beta-carotene
Sunburn by UVR exposure; adult female, 2 milligrams of astaxanthin per day oral, eleventh day
  sunburn after exposure to the full sun: not affected by the UVR exposure
Sunburn by UVR exposure; remainder of vacation, while taking the astaxanthin supplement
  sunburn effects while wearing shorts outside: without sunburn effects
SKH hairless mice
  probability of epidermal tumors: tended to have higher probability of epidermal tumors
SKH1 hairless mice; astaxanthin alone or in combination with retinol
  prevention of increases of free putrescine after irradiation: remarkably effective
SKH1 hairless mice; diet 10-ppm astaxanthin, 4 months, ultraviolet light
  increase of epidermal putrescine after irradiation: 1.5 fold
SKH1 hairless mice; groups fed astaxanthin
  spermidine and spermine concentrations: significantly lower
SKH1 hairless mice; mouse, in vivo
  inhibitory effect on putrescine accumulation compared with dietary retinol: stronger inhibitory effect
Vitamin E-deficient rats
  mitochondrial damage caused by lipid peroxidation: protects the mitochondria from damage
[3]; after 1 month
  sensitivity to the sunlight: noticeably improved
  sunblister sores: all of their blisters were healed
[3]; after 2 weeks
  sunblister sores: blisters began to heal
[3]; adult male, after 2 weeks
  sensitivity to sun exposure: not sensitive to the sun exposure
Rat kidney fibroblasts
  level necessary to protect against UV-induced loss of catalase (CAT): 5 nM
  level required to protect against loss of SOD activity: 5 nM
  level that prevented the UVA-induced increase in TBARS: 1 nM
  protection against UVA light-induced oxidative stress compared to lutein and beta-carotene: superior protection

## CC(=O)Oc1c(C)c(C)c2c(c1C)CCC(C)(CCC[C@H](C)CCC[C@H](C)CCCC(C)C)O2 (stereo partly drawn) [vitamin E acetate]
Laboratory animals
  inflammation, skin sensitivity and skin damage: prevented inflammation, skin sensitivity and skin damage

## COc1ccc2[nH]cc(CCNC(C)=O)c2c1 [melatonin]
UV-induced erythema; applied after UV irradiation
  protective effects against UV-induced erythema: no significant protective effects
UV-induced erythema; topical, 15 min before UV irradiation
  development of UV-induced erythema: almost completely suppress

From US6433025B1, “Method for retarding and preventing sunburn by UV light” (Cyanotech Corporation, priority 2000, dated 2002)
